From patent publication US4720495A, “Benzo[ij]quinolizine-2-carboxylic acids useful for treating bacterial infection” (priority 1985, dated 1988)
≈ marks a conversion by molar mass, not a printed value.

What was measured:
[1] = system: Bacillus subtilis ATCC 6633; test: minimal inhibitory concentration, in vitro antibacterial activity; format: cell-based; conditions: ATCC6633, 37° C., 20 hours
Experimental: (§1) The in vitro antibacterial activities of typical examples of the present compounds [I] were evaluated in terms of the minimal inhibitory concentration defined as the lowest concentration of the compound preventing the bacterial growth. The Gram-positive bacteria used as test microorganisms included Bacillus subtilis, Staphylococcus aureus and Streptococcus faecalis, and the Gram-negative bacteria used as test microorganisms included Escherichia coli, Enterobacter cloacae, Klebsiella pneumoniae, Proteus vulgaris, Pseudomonas aeruginosa, Serratia marcescens and Salmonella enteritidis. The minimal inhibitory concentration (cultured at 37° C. for 20 hours) was determined according to the standard method prescribed by the Japan Society of Chemotherapy (CHEMOTHERAPY, Vol. 29, No. 1, p. 76, 1981). The following compounds were used as typical examples of the present compounds [I]. At the end of the chemical name of each compound, its tentative designation is given in Parentheses.
(§2) For purposes of comparison, the in vitro antibacterial activities of ofloxacin, OPC-7241 and compound α were evaluated according to the same method as described above and the test results thus obtained are also shown in Table 1.

Enterobacter cloacae 963 = test: as above; format: cell-based; conditions: 37° C., 20 hours
Experimental: as §1, §2

Escherichia coli CI-304 = test: as above; format: cell-based; conditions: CI304, 37° C., 20 hours
Experimental: as §1, §2

[2] = system: Escherichia coli NIHJ JC-2; test: as above; format: cell-based; conditions: NIHJJC2, 37° C., 20 hours
Experimental: as §1, §2

[3] = system: Klebsiella pneumoniae PCI 602; test: as above; format: cell-based; conditions: PCI602, 37° C., 20 hours
Experimental: as §1, §2

[4] = system: Proteus vulgaris ATCC 13315; test: as above; format: cell-based; conditions: ATCC13315, 37° C., 20 hours
Experimental: as §1, §2

[5] = system: Pseudomonas aeruginosa NCTC 10490; test: as above; format: cell-based; conditions: NCTC10490, 37° C., 20 hours
Experimental: as §1, §2

[6] = system: Salmonella enteritidis G14; test: as above; format: cell-based; conditions: Salmonella enterica, 37° C., 20 hours
Experimental: as §1, §2

[7] = system: Serratia marcescens IAM 1184; test: as above; format: cell-based; conditions: IAM1184, 37° C., 20 hours
Experimental: as §1, §2

[8] = system: Staphylococcus aureus FDA 209P JC-1; test: as above; format: cell-based; conditions: FDA209P, 37° C., 20 hours
Experimental: as §1, §2

[9] = system: Streptococcus faecalis AHU 1085; test: as above; format: cell-based; conditions: Enterococcus faecalis, AHU1085, 37° C., 20 hours
Experimental: as §1, §2

[10] = enteral absorbability, serum concentration after oral administration to mice; format: in vivo; conditions: mouse, 50 mg/kg orally, fasted male ICR mice; for concentration at 0.5 h: 30 min.
Experimental: Using male ICR mice fasted overnight (weighing 20±1 g), the enteral absorbability of some typical examples of the present compounds [I] was tested. This test was carried out by administering 50 mg/kg of each test compound orally to mice and determining its serum concentration 30 minutes, 1 hour, 2 hours and 4 hours after administration. Five mice were used for each test point. At each test point, whole blood was collected from the mice by cardiac puncture and used to prepare serum samples. Concentrations of the test compounds in serum samples were determined by the paper disc method using Escherichia coli CI-304 as the test microorganism.
For purposes of comparison, the enteral absorbability of ofloxacin and OPC-7241 was tested in the same manner as described above and the results thus obtained are also shown in Table 2.

Row | Structure (SMILES) | MIC [1] | MIC (Enterobacter cloacae 963) | MIC (Escherichia coli CI-304) | MIC [2] | MIC [3] | MIC [4] | MIC [5] | MIC [6] | MIC [7] | MIC [8] | MIC [9] | concentration at 0.5 h [10] | concentration at 1 h [10] | concentration at 2 h [10] | concentration at 4 h [10]
1 | CC1CN(c2c(F)cc3c(=O)c(C(=O)O)cn4c3c2C(=O)CC4C)CC(C)N1 (stereo not drawn) [Compound 11, 9-Fluoro-5-methyl-8-(3,5-dimethyl-1-piperazinyl) -6,7-dihydro-1,7-dioxo-1H, 5H-benzo[ij]quinolizine-2-carboxylic acid] | 0.1 µg/mL (≈ 0.258 µM) | 0.2 µg/mL (≈ 0.516 µM) | 0.1 µg/mL (≈ 0.258 µM) | 0.2 µg/mL (≈ 0.516 µM) | 0.1 µg/mL (≈ 0.258 µM) | 0.39 µg/mL (≈ 1.01 µM) | 1.56 µg/mL (≈ 4.03 µM) | 0.78 µg/mL (≈ 2.01 µM) | 3.13 µg/mL (≈ 8.08 µM) | 0.78 µg/mL (≈ 2.01 µM) | 3.13 µg/mL (≈ 8.08 µM) | 20800 ng/mL | 15800 ng/mL | 7200 ng/mL | 5300 ng/mL
2 | CC1CC(=O)c2c(N3CCN(C)CC3)c(F)cc3c(=O)c(C(=O)O)cn1c23.Cl.O (stereo not drawn) [Compound 35, 9-Fluoro-5-methyl-8-(4-methyl-1-piperazinyl) -6,7-dihydro-1,7-dioxo-1H, 5H-benzo[ij]quinolizine-2-carboxylic acid hydrochloride monohydrate] | 0.1 µg/mL | 0.2 µg/mL | 0.1 µg/mL | 0.2 µg/mL | 0.1 µg/mL | 0.2 µg/mL | 0.78 µg/mL | 0.78 µg/mL | 1.56 µg/mL | 0.39 µg/mL | 0.78 µg/mL | 24500 ng/mL | 22000 ng/mL | 11800 ng/mL | 8500 ng/mL
3 | CC1CN(c2c(F)cc3c(=O)c(C(=O)O)cn4c3c2C(=O)CC4C)CCN1C.Cl.O (stereo not drawn) [Compound 38, 9-fluoro-5-methyl-8-(3,4-dimethyl-1-piperazinyl)-6,7-dihydro-1,7-dioxo-1H,5H-benzo[ij]quinolizine-2-carboxylic acid hydrochloride monohydrate] | 0.1 µg/mL | 0.2 µg/mL | 0.1 µg/mL | 0.2 µg/mL | 0.1 µg/mL | 0.1 µg/mL | 1.56 µg/mL | 0.78 µg/mL | 1.56 µg/mL | 0.78 µg/mL | 0.78 µg/mL | 26700 ng/mL | 24100 ng/mL | 13500 ng/mL | 9000 ng/mL
4 | CC1C=Cc2c(N3CCN(C)CC3)c(F)cc3c(=O)c(C(=O)O)cn1c23 (stereo not drawn) [Compound 19, 9-Fluoro-5-methyl-8-(4-methyl-1-piperazinyl) -1-oxo-1H, 5H-benzo[ij]quinolizine-2-carboxylic acid] | 0.1 µg/mL (≈ 0.28 µM) | 0.78 µg/mL (≈ 2.18 µM) | 0.2 µg/mL (≈ 0.56 µM) | 0.39 µg/mL (≈ 1.09 µM) | 0.1 µg/mL (≈ 0.28 µM) | 0.1 µg/mL (≈ 0.28 µM) | 0.78 µg/mL (≈ 2.18 µM) | 0.78 µg/mL (≈ 2.18 µM) | 1.56 µg/mL (≈ 4.37 µM) | 0.39 µg/mL (≈ 1.09 µM) | 1.56 µg/mL (≈ 4.37 µM) |  |  |  | 
5 | CC1CC(=O)c2c(N3CCNCC3)c(F)cc3c(=O)c(C(=O)O)cn1c23 (stereo not drawn) [Compound 1, 9-Fluoro-5-methyl-8-(1-piperazinyl)-6,7-dihydro-1,7-dioxo-1H,5H-benzo[ij]quinolizine-2-carboxylic acid] | 0.39 µg/mL (≈ 1.09 µM) | 0.78 µg/mL (≈ 2.17 µM) | 0.1 µg/mL (≈ 0.278 µM) | 0.39 µg/mL (≈ 1.09 µM) | 0.1 µg/mL (≈ 0.278 µM) | 0.2 µg/mL (≈ 0.557 µM) | 1.56 µg/mL (≈ 4.34 µM) | 0.39 µg/mL (≈ 1.09 µM) | 3.13 µg/mL (≈ 8.71 µM) | 0.2 µg/mL (≈ 0.557 µM) | 1.56 µg/mL (≈ 4.34 µM) |  |  |  | 
6 | CC1C=Cc2c(N3CCN(C)CC3)c(F)cc3c(=O)c(C(=O)O)cn1c23.Cl (stereo not drawn) [Compound 37, 9-Fluoro-5-methyl-8-(4-methyl-1-piperazinyl) -1-oxo-1H, 5H-benzo[ij]quinolizine-2-carboxylic acid hydrochloride] | 0.1 µg/mL | 0.78 µg/mL | 0.2 µg/mL | 0.39 µg/mL | 0.1 µg/mL | 0.1 µg/mL | 0.78 µg/mL | 0.78 µg/mL | 1.56 µg/mL | 0.39 µg/mL | 1.56 µg/mL |  |  |  | 
